This assay deals with P388 leukemia ip, CD2F1 mice, survival T/C. Description: NCI In Vivo Anticancer Drug Screen. Data for tumor model P388 Leukemia (intraperitoneal) in CD2F1 (CDF1) mice. The note with it: endpoint: median survival time, higher = longer survival. The method, boiled down:
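Mice carrying the transplanted tumor received test compound or vehicle. Survival was recorded in each group, and the value is the treated-group measurement divided by that of the vehicle-treated control group.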

[1] abbreviates: dose: 50.0 mg/kg/injection, schedule: Q01DX009 (ip), vehicle: saline with Tween-80.
Where [2] appears, read: dose: 100.0 mg/kg/injection, schedule: Q01DX009 (ip), vehicle: saline with Tween-80.
Setting [3] is: dose: 200.0 mg/kg/injection, schedule: Q01DX009 (ip), vehicle: saline with Tween-80.
Where [4] appears, read: dose: 50.0 mg/kg/injection, schedule: Q01DX005 (ip), vehicle: saline with Tween-80.
Setting [5] is: dose: 100.0 mg/kg/injection, schedule: Q01DX005 (ip), vehicle: saline with Tween-80.
[6] abbreviates: dose: 200.0 mg/kg/injection, schedule: Q01DX005 (ip), vehicle: saline with Tween-80.
Where [7] appears, read: dose: 50.0 mg/kg/injection, schedule: Q01DX009 (ip), vehicle: saline.
Where [8] appears, read: dose: 100.0 mg/kg/injection, schedule: Q01DX009 (ip), vehicle: saline.
Where [9] appears, read: dose: 50.0 mg/kg/injection, schedule: Q01DX005 (ip), vehicle: Klucel (hydroxypropylcellulose) (HPC).
Where [10] appears, read: dose: 100.0 mg/kg/injection, schedule: Q01DX005 (ip), vehicle: Klucel (hydroxypropylcellulose) (HPC).
[11] abbreviates: dose: 200.0 mg/kg/injection, schedule: Q01DX005 (ip), vehicle: Klucel (hydroxypropylcellulose) (HPC).
The mark [12] stands for this setting: dose: 60.0 mg/kg/injection, schedule: Q01DX005 (ip), vehicle: saline with Tween-80.
The mark [13] stands for this setting: dose: 120.0 mg/kg/injection, schedule: Q01DX005 (ip), vehicle: saline with Tween-80.
[14] abbreviates: dose: 240.0 mg/kg/injection, schedule: Q01DX005 (ip), vehicle: saline with Tween-80.
The mark [15] stands for this setting: dose: 25.0 mg/kg/injection, schedule: Q01DX009 (ip), vehicle: other.
The mark [16] stands for this setting: dose: 50.0 mg/kg/injection, schedule: Q01DX009 (ip), vehicle: other.
[17] abbreviates: dose: 100.0 mg/kg/injection, schedule: Q01DX009 (ip), vehicle: other.
[18] abbreviates: dose: 200.0 mg/kg/injection, schedule: Q01DX009 (ip), vehicle: other.

SMILES strings stand for the structures. Several values for one entry are separate records, joined by “and”; a condition that tells them apart may be missing. Equal values may be shown once. Toxic doses and inconclusive results are not listed. Peptide text beside a SMILES is read from it. * marks the point of attachment. Trt = c1ccc(C(c2ccccc2)(c2ccccc2)*)cc1; Boc = CC(C)(C)OC(=O)*; Bn = c1ccc(C*)cc1

Regarding `CNc1ccc(OC)cc1`, the T/C was 100 % of control (dose: 100.0 mg/kg/injection, schedule: Q04DX003 (ip), vehicle: other); 90 % of control (dose: 200.0 mg/kg/injection, schedule: Q04DX003 (ip), vehicle: other); 109 % of control (dose: 400.0 mg/kg/injection, schedule: Q04DX003 (ip), vehicle: other).
As to `COc1cc([N+](=O)[O-])ccc1NC(=O)Nc1nccs1`, the T/C is, setting by setting: under setting [1], 93 % of control; under setting [2], 101 % of control; under setting [3], 99 % of control.
`COC(=O)[C@H]1O[C@H]1c1cccc[n+]1[O-]`: the T/C was 100 % of control (dose: 25.0 mg/kg/injection, schedule: Q01DX005 (ip), vehicle: water); 97 % of control (dose: 50.0 mg/kg/injection, schedule: Q01DX005 (ip), vehicle: water); 100 % of control (dose: 100.0 mg/kg/injection, schedule: Q01DX005 (ip), vehicle: water); 102 % of control (dose: 200.0 mg/kg/injection, schedule: Q01DX005 (ip), vehicle: water).
As for `COCCn1c(=N)c(C(=O)OC)nc2c3ccccc3ccc21`, the T/C by setting is: under setting [4], 104 % of control; under setting [5], 107 % of control; under setting [6], 101 % of control.
As for `O=C1OCCC(O)=C1C=NCc1ccccc1`, the T/C is 105 % of control (dose: 25.0 mg/kg/injection, schedule: Q04DX003 (ip), vehicle: Klucel (hydroxypropylcellulose) (HPC)); 104 % of control (dose: 50.0 mg/kg/injection, schedule: Q04DX003 (ip), vehicle: Klucel (hydroxypropylcellulose) (HPC)); 99 % of control and 88 % of control (dose: 100.0 mg/kg/injection, schedule: Q04DX003 (ip), vehicle: Klucel (hydroxypropylcellulose) (HPC)).
As for `O=N[O-].O=N[O-].O=[N+]([O-])O.[Co+3].[NH-]CC[NH-].[NH-]CC[NH-]`, the T/C runs as follows: (dose: 12.5 mg/kg/injection, schedule: Q01DX009 (ip), vehicle: saline) 104 % of control; (dose: 25.0 mg/kg/injection, schedule: Q01DX009 (ip), vehicle: saline) 98 % of control; under setting [7], 100 % of control and 98 % of control; under setting [8], 100 % of control.
Consider `C=C(C)C12CC(C)C34OC5(CCCCCCCC(C)C6C(C)C(OC(=O)c7ccccc7)C(O)(C(O)C7(CO)OC7C3C1O5)C64)O2` (stereo unspecified), for which the T/C is, setting by setting: (dose: 3.0 micrograms/kg/injection, schedule: Q01DX009 (ip), vehicle: saline + alcohol) 107 % of control; (dose: 5.0 micrograms/kg/injection, schedule: Q01DX009 (ip), vehicle: saline + alcohol) 109 % of control; (dose: 10.0 micrograms/kg/injection, schedule: Q01DX009 (ip), vehicle: saline + alcohol) 118 % of control.
On to `C[CH2][Sn]([CH2]C)([O]S(C)(=O)=O)[O]S(C)(=O)=O`, for which the T/C was 114 % of control (dose: 1.56 mg/kg/injection, schedule: Q04DX003 (ip), vehicle: saline); 117 % of control and 118 % of control (dose: 6.25 mg/kg/injection, schedule: Q04DX003 (ip), vehicle: saline); 164 % of control (dose: 12.5 mg/kg/injection, schedule: Q04DX003 (ip), vehicle: saline).
For `COC(=O)Cc1cc(=O)[nH][nH]1`, the T/C is 93 % of control (dose: 50.0 mg/kg/injection, schedule: Q01DX001 (ip), vehicle: suspension in saline); 95 % of control (dose: 100.0 mg/kg/injection, schedule: Q01DX001 (ip), vehicle: suspension in saline); 86 % of control (dose: 200.0 mg/kg/injection, schedule: Q01DX001 (ip), vehicle: suspension in saline).
Consider `CN(C)CC(CN(C)C)C(=O)c1ccc(Oc2ccccc2)cc1`, for which the T/C (dose: 7.5 mg/kg/injection, schedule: Q01DX005 (ip), vehicle: saline) is 123 % of control and the T/C (dose: 15.0 mg/kg/injection, schedule: Q01DX005 (ip), vehicle: saline) was 120 % of control.
Consider `CCOC(=O)C(CC)c1ccccc1` (stereo unspecified), for which the T/C was 99 % of control under setting [1], 102 % of control under setting [2] and 112 % of control under setting [3].
Take `CCOC(=O)CNC(=O)C(CSCc1ccccc1)NC(=O)C(CSC(c1ccccc1)(c1ccccc1)c1ccccc1)NC(=O)OC(C)(C)C` (stereo unspecified) (Boc-Cys(Trt)-Cys(Bn)-Gly-OEt; configuration not given here): the T/C under setting [9] is 101 % of control, the T/C under setting [10] is 101 % of control and the T/C under setting [11] was 99 % of control.
Turning to `CCN(CC)CCCC(C)Nc1ncnc2cc(Cl)ccc12` (stereo unspecified), the T/C is, setting by setting: under setting [4], 97 % of control; under setting [5], 94 % of control; under setting [6], 94 % of control.
As for `COc1ccc(C(=O)C(C)Br)c(OCc2ccccc2)c1OC` (stereo unspecified), the T/C reads like this: under setting [1], 107 % of control; under setting [2], 105 % of control and 109 % of control; under setting [3], 114 % of control and 118 % of control; (dose: 400.0 mg/kg/injection, schedule: Q01DX009 (ip), vehicle: saline with Tween-80) 110 % of control and 122 % of control.
On to `O=C(O)c1cn2c(n1)sc1ccccc12`, for which the T/C runs as follows: (dose: 100.0 mg/kg/injection, schedule: Q01DX001 (ip), vehicle: Klucel (hydroxypropylcellulose) (HPC)) 97 % of control; (dose: 200.0 mg/kg/injection, schedule: Q01DX001 (ip), vehicle: Klucel (hydroxypropylcellulose) (HPC)) 92 % of control; (dose: 400.0 mg/kg/injection, schedule: Q01DX001 (ip), vehicle: Klucel (hydroxypropylcellulose) (HPC)) 96 % of control.
Turning to `COC(=O)[C@]1(CC[N+](=O)[O-])N=C(c2ccccc2)O[C@@H]1C`, the T/C by setting is: under setting [12], 105 % of control; under setting [13], 109 % of control; under setting [14], 113 % of control.
Regarding `N#CC1(C#N)C(CCl)C1(C#N)C#N`, the T/C was 98 % of control (dose: 12.5 mg/kg/injection, schedule: Q01DX009 (ip), vehicle: saline with Tween-80); 94 % of control (dose: 25.0 mg/kg/injection, schedule: Q01DX009 (ip), vehicle: saline with Tween-80); 98 % of control under setting [1]; 102 % of control under setting [7].
Consider `O=C1c2ccccc2C(=O)N1CCP(=O)(c1ccccc1)c1ccccc1`, for which the T/C (dose: 12.5 mg/kg/injection, schedule: Q01DX009 (ip), vehicle: other) is 98 % of control; the T/C under setting [15] is 106 % of control; the T/C under setting [16] is 98 % of control; the T/C under setting [17] was 91 % of control; the T/C under setting [18] is 91 % of control.
As for `CC(=O)OCCOCNC(=S)NN`, the T/C by setting is: under setting [12], 101 % of control; under setting [13], 101 % of control; under setting [14], 90 % of control.
In the case of `Cc1ccc(NC(=O)NCCCN2CCOCC2)cc1NC(=O)NCCCN1CCOCC1`, the T/C by setting is: (dose: 50.0 mg/kg/injection, schedule: Q01DX009 (ip), vehicle: Klucel (hydroxypropylcellulose) (HPC)) 104 % of control; (dose: 100.0 mg/kg/injection, schedule: Q01DX009 (ip), vehicle: Klucel (hydroxypropylcellulose) (HPC)) 100 % of control; (dose: 200.0 mg/kg/injection, schedule: Q01DX009 (ip), vehicle: Klucel (hydroxypropylcellulose) (HPC)) 96 % of control.
With `O=C(Oc1ccc(NC(=O)c2cc3c(cc2Br)OCO3)cc1)c1ccccc1`, the T/C runs as follows: under setting [15], 104 % of control; under setting [16], 103 % of control; under setting [17], 89 % of control; under setting [18], 97 % of control; (dose: 400.0 mg/kg/injection, schedule: Q01DX009 (ip), vehicle: other) 95 % of control.
On to `CC(=O)OC1OC(CS[As](C)C)C(OC(C)=O)C(OC(C)=O)C1OC(C)=O` (stereo unspecified), for which the T/C is 104 % of control under setting [7]; 106 % of control under setting [8]; 104 % of control (dose: 200.0 mg/kg/injection, schedule: Q01DX009 (ip), vehicle: saline).
In the case of `CC(NC(=O)/C=C/c1ccco1)C(=O)NC(Cc1ccccc1)C(N)=O` (stereo unspecified), the T/C under setting [9] is 104 % of control, the T/C under setting [10] was 106 % of control and the T/C under setting [11] is 104 % of control.

The values above are taken from PubChem BioAssay AID330 (DTP/NCI, 2004).
